Bounds are passed on as bounds.

The first assay relates to HT-1080. The assay can be described thus: Cytotoxicity against human HT-1080 cells assessed as cell viability incubated for 24 hrs by CCK-8 assay. Conditions: HT-1080, 24 h.
Turning to `C#Cc1nc(C(=O)N(c2ccc(-c3cnco3)cc2)C(C(=O)NCCc2ccccc2)c2csc3ccccc23)cs1` (stereo not given), the IC50 (as a rule, the concentration that gives 50% inhibition) stood at 0.021 µM.

Regarding `C#Cc1nc(C(=O)N(c2ccc(-c3cnco3)cc2)C(C(=O)NC(C)(C)C)c2cccs2)cs1` (stereo not given), the IC50 came to 0.341 µM.

For `C#Cc1nc(C(=O)N(c2ccc(-n3cccn3)cc2)C(C(=O)NC(C)(C)C)c2csc3ccccc23)cs1` (stereo not given), the IC50 came to 0.239 µM.

Turning to `O=C(NCCc1ccccc1)C(c1csc2ccccc12)N(C(=O)c1ccc([N+](=O)[O-])o1)c1ccc(-c2cnco2)cc1` (stereo not given), the IC50 is > 5 µM.

`C#Cc1nc(C(=O)N(c2ccc(-c3cnco3)cc2)C(C(=O)NC(C)(C)C)c2cccc3ccccc23)cs1` (stereo not given): the IC50 came out at 0.022 µM.

`C#Cc1nc(C(=O)N(c2ccc(-c3cnco3)cc2)C(C(=O)NC(C)(C)C)c2c[nH]c3ccccc23)cs1` (stereo not given): the IC50 worked out at 0.098 µM.

For `C=CC(=O)N(c1ccc(-c2cnco2)cc1)C(C(=O)NCCc1ccccc1)c1csc2ccccc12` (stereo not given), the IC50 is 0.064 µM.

On to `C#Cc1nc(C(=O)N(c2ccc(-c3cnco3)cc2)C(C(=O)NC(C)(C)C)C2=CCCOC2)cs1` (stereo not given), for which the IC50 was determined as 0.415 µM.

Turning to `O=C(NCCc1ccccc1)C(c1csc2ccccc12)N(C(=O)c1cc([N+](=O)[O-])[nH]n1)c1ccc(-c2cnco2)cc1` (stereo not given), the IC50 is > 5 µM.

Regarding `C#Cc1nc(C(=O)N(c2ccc(-c3cnco3)cc2)C(C(=O)NC(C)(C)C)c2csc3ccccc23)cs1` (stereo not given), the IC50 was found to be 0.07 µM.

Consider `C#Cc1nc(C(=O)N(c2ccc(-c3cnco3)cc2)C(C(=O)NC(C)(C)C)c2c[nH]cn2)cs1` (stereo not given), for which the IC50 turned out to be 0.459 µM.

In the case of `C#Cc1nc(C(=O)N(c2ccc(-n3cncn3)cc2)C(C(=O)NC(C)(C)C)c2csc3ccccc23)cs1` (stereo not given), the IC50 was 0.356 µM.

As for `C#Cc1nc(C(=O)N(c2ccc(-c3cnco3)cc2)C(C(=O)NC(C)(C)C)C2CCCCC2)cs1` (stereo not given), the IC50 is 0.354 µM.

For the molecule `O=C(NCCc1ccccc1)C(c1csc2ccccc12)N(C(=O)c1ccc([N+](=O)[O-])s1)c1ccc(-c2cnco2)cc1` (stereo not given), the IC50 is > 5 µM.

The subject of another assay is HT-1080. Put plainly: Induction of ferroptosis in human HT-1080 cells assessed as reduction in cell viability incubated for 24 hrs in presence of Fer-1 by CCK-8 assay. As to conditions: HT-1080, 24 h. For orientation: Tetrazolium assays rely on reduction of a dye to a coloured formazan, in cell work by metabolically active cells.
Regarding `C#Cc1nc(C(=O)N(c2ccc(-c3cnco3)cc2)C(C(=O)NCCc2ccccc2)c2csc3ccccc23)cs1` (stereo not given), the IC50 stood at 9.03 µM.

As for `C#Cc1nc(C(=O)N(c2ccc(-c3cnco3)cc2)C(C(=O)NC(C)(C)C)c2cccs2)cs1` (stereo not given), the 50% inhibitory concentration (IC50) was 6.79 µM.

In the case of `C#Cc1nc(C(=O)N(c2ccc(-n3cccn3)cc2)C(C(=O)NC(C)(C)C)c2csc3ccccc23)cs1` (stereo not given), the IC50 was 6.83 µM.

`C#Cc1nc(C(=O)N(c2ccc(-c3cnco3)cc2)C(C(=O)NC(C)(C)C)c2cccc3ccccc23)cs1` (stereo not given): the IC50 was determined as 8.65 µM.

As to `C#Cc1nc(C(=O)N(c2ccc(-c3cnco3)cc2)C(C(=O)NC(C)(C)C)c2c[nH]c3ccccc23)cs1` (stereo not given), the IC50 amounted to 8.42 µM.

Regarding `C=CC(=O)N(c1ccc(-c2cnco2)cc1)C(C(=O)NCCc1ccccc1)c1csc2ccccc12` (stereo not given), the IC50 came to 3.75 µM.

As to `C#Cc1nc(C(=O)N(c2ccc(-c3cnco3)cc2)C(C(=O)NC(C)(C)C)C2=CCCOC2)cs1` (stereo not given), the IC50 amounted to 6.2 µM.

For `C#Cc1nc(C(=O)N(c2ccc(-c3cnco3)cc2)C(C(=O)NC(C)(C)C)c2csc3ccccc23)cs1` (stereo not given), the IC50 was 3.05 µM.

For `C#Cc1nc(C(=O)N(c2ccc(-c3cnco3)cc2)C(C(=O)NC(C)(C)C)c2c[nH]cn2)cs1` (stereo not given), the IC50 was 6.14 µM.

For the molecule `C#Cc1nc(C(=O)N(c2ccc(-n3cncn3)cc2)C(C(=O)NC(C)(C)C)c2csc3ccccc23)cs1` (stereo not given), the IC50 was determined as 4.23 µM.

Turning to `C#Cc1nc(C(=O)N(c2ccc(-c3cnco3)cc2)C(C(=O)NC(C)(C)C)C2CCCCC2)cs1` (stereo not given), the IC50 came to 8.16 µM.

Tested on in the next assay: not listed separately
The assay can be described thus: Selectivity index, ratio of IC50 for cytotoxicity against human HT-1080 cells assessed as cell viability incubated for 24 hrs by CCK-8 assay to IC50 for induction of ferroptosis in human HT-1080 cells assessed as reduction in cell viability incubated for 24 hrs […] by CCK-8 assay. It is filed as functional.
Settings: not given
Turning to `C#Cc1nc(C(=O)N(c2ccc(-c3cnco3)cc2)C(C(=O)NCCc2ccccc2)c2csc3ccccc23)cs1` (stereo not given), the “Ratio IC50” value was determined as 430.

For `C#Cc1nc(C(=O)N(c2ccc(-c3cnco3)cc2)C(C(=O)NC(C)(C)C)c2cccs2)cs1` (stereo not given), the “Ratio IC50” value turned out to be 19.9.

As for `C#Cc1nc(C(=O)N(c2ccc(-n3cccn3)cc2)C(C(=O)NC(C)(C)C)c2csc3ccccc23)cs1` (stereo not given), the “Ratio IC50” value is reported as 29.

For `C#Cc1nc(C(=O)N(c2ccc(-c3cnco3)cc2)C(C(=O)NC(C)(C)C)c2cccc3ccccc23)cs1` (stereo not given), the “Ratio IC50” value is given as 393.

Take `C#Cc1nc(C(=O)N(c2ccc(-c3cnco3)cc2)C(C(=O)NC(C)(C)C)c2c[nH]c3ccccc23)cs1` (stereo not given): the “Ratio IC50” value is 86.

With `C=CC(=O)N(c1ccc(-c2cnco2)cc1)C(C(=O)NCCc1ccccc1)c1csc2ccccc12` (stereo not given), the “Ratio IC50” value is reported as 58.

For the molecule `C#Cc1nc(C(=O)N(c2ccc(-c3cnco3)cc2)C(C(=O)NC(C)(C)C)C2=CCCOC2)cs1` (stereo not given), the “Ratio IC50” value was found to be 15.

In the case of `C#Cc1nc(C(=O)N(c2ccc(-c3cnco3)cc2)C(C(=O)NC(C)(C)C)c2c[nH]cn2)cs1` (stereo not given), the “Ratio IC50” value is on record as 13.

With `C#Cc1nc(C(=O)N(c2ccc(-n3cncn3)cc2)C(C(=O)NC(C)(C)C)c2csc3ccccc23)cs1` (stereo not given), the “Ratio IC50” value came to 12.

For the molecule `C#Cc1nc(C(=O)N(c2ccc(-c3cnco3)cc2)C(C(=O)NC(C)(C)C)C2CCCCC2)cs1` (stereo not given), the “Ratio IC50” value came to 23.

Values taken from ChEMBL document CHEMBL6096736, “Development of a Highly Selective Ferroptosis Inducer Targeting GPX4 with 2-Ethynylthiazole-4-carboxamide as Electrophilic Warhead” (J Med Chem, 2025).
